From ChEMBL document CHEMBL5154799, “Discovery of a Novel Stilbene Derivative as a Microtubule Targeting Agent Capable of Inducing Cell Ferroptosis” (J Med Chem, 2022)
Calls of active or inactive are those of the source. The calls are words filed in the database; no cut-off is given here.

Legend:
Assay type in all cases: functional, cell-based
A2780 = test: Antiproliferative activity against human A2780 cells assessed as cell viability incubated for 48 hrs by MTT assay; conditions: A2780, 48 h
HCT-8 = test: Antiproliferative activity against human HCT-8 cells assessed as cell viability incubated for 48 hrs by MTT assay; conditions: HCT-8, 48 h
A549 [1] = test: Antiproliferative activity against human A549 cells assessed as cell viability incubated for 48 hrs by MTT assay; conditions: A549, 48 h
HeLa = test: Antiproliferative activity against human HeLa cells assessed as cell viability incubated for 48 hrs by MTT assay
MCF7 = test: Antiproliferative activity against human MCF7 cells assessed as cell viability incubated for 48 hrs by MTT assay; conditions: MCF7, 48 h
A549 [2] = test: Induction of apoptosis in human A549 cells assessed as cell viability pretreated with ferroptosis inhibitor ferrostatin-1 for 24 hrs followed by incubation with compound at 100 nM and measured after 48 hrs by CCK-8 assay
A549 [3] = test: Induction of apoptosis in human A549 cells assessed as cell viability pretreated with ferroptosis inhibitor desferoxamine for 24 hrs followed by incubation with compound at 100 nM and measured after 48 hrs by CCK-8 assay
A549 [4] = test: Induction of apoptosis in human A549 cells assessed as cell viability pretreated with necroptosis inhibitor necrostatin-I for 24 hrs followed by incubation with compound at 100 nM and measured after 48 hrs by CCK-8 assay
A549 [5] = test: Induction of apoptosis in human A549 cells assessed as cell viability pretreated with caspase inhibitor Z-VAD-FMK for 24 hrs followed by incubation with compound at 100 nM and measured after 48 hrs by CCK-8 assay
A549 [6] = test: Induction of apoptosis in human A549 cells assessed as cell viability pretreated with autophagy inhibitor 3-methyladenine for 24 hrs followed by incubation with compound at 100 nM and measured after 48 hrs by CCK-8 assay

| SMILES | IC50 (A2780) [µM] | IC50 (HCT-8) [µM] | IC50 (A549 [1]) [µM] | IC50 (HeLa) [µM] | IC50 (MCF7) [µM] | Activity (A549 [2]) | Activity (A549 [3]) | Activity (A549 [4]) | Activity (A549 [5]) | Activity (A549 [6]) |
| --- | --- | --- | --- | --- | --- | --- | --- | --- | --- | --- |
| CCNCC(=O)Nc1cc(OC)ccc1C(=O)c1ccc(OC)c2c1OC(C)(C)C=C2 | 1.98 | 3.69 | 1.05 | 2.69 | 5.2 |  |  |  |  |  |
| CCNCC(=O)Nc1cc(OC)ccc1C(=O)c1ccc2c(c1)C=CC(C)(C)O2 | 2.07 | 3.99 | 1.3 | 3.11 | 6.31 |  |  |  |  |  |
| C=C(c1ccc(OC)cc1NC(=O)CN)c1ccc(OC)c2c1C=CC(C)(C)O2 | 0.4 | 0.52 | 0.09 | 0.2 | 0.78 |  |  |  |  |  |
| COc1ccc(C(=O)c2ccc(OC)c3c2C=CC(C)(C)O3)c(NC(=O)CN)c1 | 0.89 | 1.05 | 0.42 | 0.1 | 1.25 |  |  |  |  |  |
| CNCC(=O)Nc1cc(OC)ccc1C(=O)c1ccc(OC)c2c1OC(C)(C)C=C2 | 0.62 | 0.74 | 0.62 | 0.87 | 0.82 |  |  |  |  |  |
| C=C(c1cc(OC)c(OC)c(OC)c1)c1ccc(OC)c(O)c1NC(=O)COCC | 1.23 | 0.91 | 0.88 | 0.69 | 1.05 |  |  |  |  |  |
| CNCC(=O)Nc1cc(OC)ccc1C(=O)c1ccc(OC)c2c1C=CC(C)(C)O2 | 1.59 | 3.46 | 1.37 | 2.17 | 3.04 |  |  |  |  |  |
| C=C(c1ccc(OC)cc1NC(=O)CNCC)c1ccc(OC)c2c1C=CC(C)(C)O2 | 2.01 | 3.05 | 1.87 | 2.59 | 2.92 |  |  |  |  |  |
| C=C(c1cc(OC)c(OC)c(OC)c1)c1ccc(OC)cc1NC(=O)CN(C)C | 0.24 | 0.34 | 0.13 | 0.37 | 0.39 |  |  |  |  |  |
| COc1ccc(/C=C/C(=O)c2ccc(OC)c3c2OC(C)(C)C=C3)cc1 [MILLEPACHINE] | 3.09 | 5.02 | 3.95 | 6.03 | 6.98 |  |  |  |  |  |
| C=C(c1cc(OC)c(OC)c(OC)c1)c1ccc(OC)c(O)c1NC(C)=O | 0.17 | 0.34 | 0.08 | 0.09 | 0.27 | Active | Active | Active | Active | Active |
| C=C(c1cc(OC)c(OC)c(OC)c1)c1ccc(OC)cc1NC(=O)CNC | 0.14 | 0.19 | 0.1 | 0.14 | 0.24 |  |  |  |  |  |
| COc1ccc(C(=O)c2ccc3c(c2)C=CC(C)(C)O3)c(NC(=O)CN(C)C)c1 | 1.02 | 2.42 | 1.16 | 1.26 | 3.56 |  |  |  |  |  |
| COc1ccc(C(=O)c2ccc3c(c2)C=CC(C)(C)O3)c(NC(=O)CO)c1 | 0.13 | 0.25 | 0.09 | 0.24 | 0.2 |  |  |  |  |  |
| COc1ccc(C(=O)c2cc(OC)c(OC)c(OC)c2)c(NC(=O)CN(C)C)c1 | 0.58 | 0.79 | 0.59 | 0.47 | 0.79 |  |  |  |  |  |
| C=C(c1cc(OC)c(OC)c(OC)c1)c1ccc(OC)cc1NC(=O)CNCC | 0.45 | 0.59 | 0.26 | 0.43 | 0.86 |  |  |  |  |  |
| C=C(c1ccc2c(c1)C=CC(C)(C)O2)c1ccc(OC)cc1NC(=O)CN | 0.14 | 0.22 | 0.06 | 0.16 | 0.42 |  |  |  |  |  |
| COc1ccc(C(=O)c2ccc(OC)c3c2C=CC(C)(C)O3)c(NC(=O)CBr)c1 | 2.15 | 4.36 | 2.46 | 3.68 | 3.29 |  |  |  |  |  |
| C=C(c1cc(OC)c(OC)c(OC)c1)c1ccc(OC)c(O)c1NC(=O)CN(C)C | 0.09 | 0.11 | 0.05 | 0.12 | 0.21 |  |  |  |  |  |
| COc1ccc(C(=O)c2cc(OC)c(OC)c(OC)c2)c(NC(=O)CN)c1 | 0.19 | 0.33 | 0.22 | 0.13 | 0.27 |  |  |  |  |  |
| CCNCC(=O)Nc1cc(OC)ccc1C(=O)c1ccc(OC)c2c1C=CC(C)(C)O2 | 4.09 | 7.89 | 2.31 | 4.27 | 7.23 |  |  |  |  |  |
| CNCC(=O)Nc1cc(OC)ccc1C(=O)c1cc(OC)c(OC)c(OC)c1 | 0.58 | 0.78 | 0.61 | 0.69 | 0.55 |  |  |  |  |  |
| C=C(c1ccc(OC)cc1NC(=O)CNC)c1ccc(OC)c2c1OC(C)(C)C=C2 | 0.21 | 0.32 | 0.15 | 0.31 | 0.4 |  |  |  |  |  |

| SMILES | IC50 (A2780) [µM] | IC50 (HCT-8) [µM] | IC50 (A549 [1]) [µM] | IC50 (HeLa) [µM] | IC50 (MCF7) [µM] | Activity (A549 [2]) | Activity (A549 [3]) | Activity (A549 [4]) | Activity (A549 [5]) | Activity (A549 [6]) |
| --- | --- | --- | --- | --- | --- | --- | --- | --- | --- | --- |
| COc1ccc(C(=O)c2ccc(OC)c3c2OC(C)(C)C=C3)c(NC(=O)CN)c1 | 0.38 | 0.37 | 0.27 | 0.41 | 0.41 |  |  |  |  |  |
| C=C(c1cc(OC)c(OC)c(OC)c1)c1ccc(OC)cc1NC(=O)CN | 0.03 | 0.06 | 0.04 | 0.07 | 0.19 |  |  |  |  |  |
| C=C(c1ccc2c(c1)C=CC(C)(C)O2)c1ccc(OC)cc1NC(=O)CN(C)C | 0.51 | 0.69 | 0.43 | 0.64 | 0.94 |  |  |  |  |  |
| COc1ccc(C(=O)c2ccc(OC)c3c2OC(C)(C)C=C3)c(NC(=O)CN(C)C)c1 | 0.79 | 1.59 | 0.89 | 1.05 | 2.68 |  |  |  |  |  |
| COc1ccc(C(=O)c2ccc3c(c2)C=CC(C)(C)O3)c(NC(=O)CN)c1 | 0.59 | 0.49 | 0.31 | 0.58 | 0.68 |  |  |  |  |  |
| C=C(c1cc(OC)c(OC)c(OC)c1)c1ccc(OC)cc1NC(=O)CO | 0.03 | 0.04 | 0.02 | 0.03 | 0.11 |  |  |  |  |  |
| C=C(c1ccc(OC)cc1NC(=O)CO)c1ccc(OC)c2c1C=CC(C)(C)O2 | 0.28 | 0.47 | 0.07 | 0.1 | 0.59 |  |  |  |  |  |
| COc1ccc(C(=O)c2ccc(OC)c3c2OC(C)(C)C=C3)c(NC(=O)CBr)c1 | 0.98 | 3.25 | 1.21 | 2.14 | 2.36 |  |  |  |  |  |
| C=C(c1ccc(OC)cc1NC(=O)CN)c1ccc(OC)c2c1OC(C)(C)C=C2 | 0.08 | 0.19 | 0.05 | 0.12 | 0.22 |  |  |  |  |  |
| C=C(c1ccc2c(c1)C=CC(C)(C)O2)c1ccc(OC)cc1NC(=O)CNC | 0.32 | 0.59 | 0.2 | 0.41 | 0.72 |  |  |  |  |  |
| COc1ccc(C(=O)c2ccc(OC)c3c2C=CC(C)(C)O3)c(NC(=O)CN(C)C)c1 | 3.99 | 5.66 | 1.85 | 3.62 | 6.53 |  |  |  |  |  |
| C=C(c1ccc(OC)cc1NC(=O)CNC)c1ccc(OC)c2c1C=CC(C)(C)O2 | 0.72 | 0.98 | 0.32 | 0.5 | 1.01 |  |  |  |  |  |
| CCNCC(=O)Nc1cc(OC)ccc1C(=O)c1cc(OC)c(OC)c(OC)c1 | 0.95 | 1.56 | 0.75 | 2.1 | 1.05 |  |  |  |  |  |
| COc1ccc(C(=O)c2ccc(OC)c3c2C=CC(C)(C)O3)c(NC(=O)CO)c1 | 0.42 | 0.63 | 0.1 | 0.31 | 0.94 |  |  |  |  |  |
| COc1ccc(C(=O)c2ccc3c(c2)C=CC(C)(C)O3)c(NC(=O)CBr)c1 | 1.87 | 3.26 | 1.98 | 3.05 | 2.88 |  |  |  |  |  |
| C=C(c1ccc2c(c1)C=CC(C)(C)O2)c1ccc(OC)cc1NC(=O)CO | 0.11 | 0.22 | 0.04 | 0.1 | 0.39 |  |  |  |  |  |
| COc1ccc(C(C)c2cc(OC)c(OC)c(OC)c2)c(NC(=O)CO)c1O (stereo not given) | 0.28 | 0.59 | 0.18 | 0.39 | 0.79 |  |  |  |  |  |
| C=C(c1ccc(OC)cc1NC(=O)CN(C)C)c1ccc(OC)c2c1OC(C)(C)C=C2 | 0.42 | 0.69 | 0.27 | 0.9 | 0.5 |  |  |  |  |  |
| CNCC(=O)Nc1cc(OC)ccc1C(=O)c1ccc2c(c1)C=CC(C)(C)O2 | 0.85 | 1.01 | 0.8 | 0.97 | 1.21 |  |  |  |  |  |
| C=C(c1ccc(OC)cc1NC(=O)CN(C)C)c1ccc(OC)c2c1C=CC(C)(C)O2 | 0.67 | 1.92 | 0.55 | 0.79 | 2.58 |  |  |  |  |  |
| C=C(c1ccc(OC)cc1NC(=O)CNCC)c1ccc(OC)c2c1OC(C)(C)C=C2 | 1.03 | 1.38 | 0.97 | 1.09 | 2.1 |  |  |  |  |  |
| C=C(c1ccc2c(c1)C=CC(C)(C)O2)c1ccc(OC)cc1NC(=O)CNCC | 1.87 | 2.22 | 1.18 | 1.58 | 3.37 |  |  |  |  |  |
